The text below walks through data of patent US5959109A, “Compounds and methods for increasing endogenous levels of corticotropin-releasing factor” (Neurocrine Biosciences, Inc., priority 1996, dated 1999).

For one data set, the system named is CRF receptors. The following applies: rat, in vivo; cited from earlier work.
The conditions of data set [1]: human, in vivo; cited from earlier work.
Data set [2] concerns CRF receptors (rat anterior pituitary cells). The data set can be described thus: ACTH secretion from rat anterior pituitary cells (CRF agonist/antagonist activity). The format is cell-based. The settings on record: for CRF agonist activity relative to standard oCRF: oCRF arbitrarily 1.0. The procedure: Candidate ligand inhibitors may be screened for their ability to displace CRF from the CRF/CRF-BP complex by biological assay or by in vitro assay. One suitable biological assay is the measurement of ACTH release from cultured pituitary cells. This assay is performed in the following manner. Anterior pituitary glands from rats are washed six times with sterile HEPES buffer and transferred to a solution containing collagenase. After subsequent transfer to a 25 ml Bellco dispersion flask, the pituitaries are stirred for 30 minutes at 37° C., triturated, incubated for a further 30 minutes, and again triturated. The partially dispersed cells are then collected by centrifugation. The cell pellet is resuspended in 10 ml of neuraminidase and again collected by centrifugation. The pellet is reconstituted in 25 ml of BBM-P (BBM (Irvine Scientific) plus 100 μg/L, cortisol, 1 μg/L insulin, 0.1 μg/L EGF2, 0.4 μg/L T3, 0.7 μg/L PTH, 10 μg/L glucagon, and 2% fetal bovine serum), centrifuged again, and the resultant pellet is finally reconstituted in BBM-P. The cells are then plated at a density of 50,000-100,000/well in a 48 well plate and incubated for 2 days. On the day of assay the cells are washed once with BBM-T in preparation for stimulation with the peptide candidates or CRF. Cells are stimulated with a maximally stimulating dose of h/rCRF (1 nM) and ACTH release is measured by RIA or immunoradiometric assay. When a blocking concentration of CRF-BP is added, the amount of ACTH that is released is reduced and expressed as a fraction of the maximal release. The ligand inhibitor is added at various doses. The potency of the peptide in displacing CRF from CRF-BP is measured by the amount of ACTH release expressed as a fraction of the maximal release caused by CRF given alone.
An additional assay using rat anterior pituitary cells to measure ACTH secretion can be carried out to determine whether a ligand inhibitor functions as a CRF agonist of hCRF receptors. […] Antagonistic action may be determined by performing the assay in the presence of a challenge dose of CRF. […]

The next data set deals with CRF/CRF-BP complexes. The data set can be described thus: ELISA of CRF/CRF-BP complex in NP-40 solubilized cerebrocortical brain tissue (FIG. 3). The format is binding, human. The settings on record: post-mortem controls and Alzheimer's disease patients. How it is done:
FIG. 3 is a graph displaying the results of ELISAs testing the ability of a representative ligand inhibitor, Compound No. 35, to displace endogenous CRF from CRF-BP in brain tissue from Alzheimer's disease patients and normal controls.
Another ligand inhibitor, Compound No. 35, was tested for its ability to inhibit CRF/CRF-BP complexes in NP-40 solubilized human cerebrocortical brain tissue obtained postmortem from controls and Alzheimer disease patients. Briefly, 0.1-0.5 g of brain tissue was homogenized in phosphate-buffered saline containing 0.2% NP-40. The homogenate was clarified by centrifugation at 3000×g for 10 minutes. Supernatants were assayed by ELISA for the formation of CRF/CRF-BP complex in the presence or absence of Compound No. 35.
(In an ELISA, binding on a coated surface is turned into a signal by an enzyme label.)

The conditions of data set [3]: cited from earlier work.
The next data set deals with human CRF-BP. The following applies: cited from earlier work.
Data set [4] can be described thus: Automated passive avoidance learning. The format is in vivo, rat. The following applies: oral, 5 minutes after training period; FIGS. 5A, 5B. The procedure:
FIGS. 5A and 5B are graphs depicting the effect of administration of representative ligand inhibitors of this invention, Compound Nos. 97-1 and 153, respectively. The ligand inhibitors were administered 5 minutes post-training period in the passive avoidance test.
The apparatus for both rats and mice is the same as used in active avoidance testing (see Example 14).
For the training trial, the animal is placed individually in one compartment of the learning apparatus, which is separated from a second compartment by a guillotine door. Following a three minute habituation period, the door is opened and the latency to enter the second compartment is recorded. When the animal enters with all four paws, the door is closed, and a 0.5 second AC footshock (Coulburn precision shocker) is delivered. After five seconds, the subject is removed and placed in its home cage. At the time of testing (usually 1-7 days later), the animal is returned to the compartment in which it was initially placed for the learning trial, the door is opened and the latency to enter the second compartment is recorded, but the animal is not shocked. […]
For most strains of rats with weights between 150 and 350 grams, an effective footshock intensity ranges from 0.2-1.0 mA. […] The latency time of rats to enter the dark compartment is measured. […]

The target of the next data set is T1, human recombinant CRF-BP (Homo sapiens, UniProt P24387).
T1 construct: made in house
T1 sequence (P24387 25-322): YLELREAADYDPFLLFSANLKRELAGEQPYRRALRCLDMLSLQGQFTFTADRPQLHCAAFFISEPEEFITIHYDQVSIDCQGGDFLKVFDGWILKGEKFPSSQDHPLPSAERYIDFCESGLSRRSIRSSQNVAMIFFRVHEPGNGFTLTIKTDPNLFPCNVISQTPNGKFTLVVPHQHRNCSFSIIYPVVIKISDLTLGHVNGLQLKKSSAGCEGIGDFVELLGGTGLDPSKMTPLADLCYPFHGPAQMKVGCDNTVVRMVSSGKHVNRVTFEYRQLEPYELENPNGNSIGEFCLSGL
The experiment in a line: LIRMA: displacement of 125I-h/rCRF from CRF-BP, Ki. The format is binding. The following applies: inhibitory binding affinity constant (Ki). The procedure: In LIRMA CRF-BP isolated from brain tissue, serum, or cells expressing a recombinant form, is added to wells of a 96-well plate, to small polypropylene microfuge tubes, or to glass borosilicate tubes in a binding buffer (0.02% NP-40 in 50 mM phosphate-buffered saline). ^125 I-h/rCRF (New England Nuclear) and the candidate ligand inhibitor at 10 μM are added and the reaction is incubated for 1 hour at room temperature. An appropriately diluted anti-CRF-BP antibody, such as a rabbit anti-hCRF-BP (Potter et al., Proc. Natl. Acad. Sci. USA 89:4192-4196, 1992) is added to each tube, and after further incubation, bound complexes are precipitated by the further addition of a goat anti-rabbit antibody. The precipitate containing ^125 I-CRF is collected by centrifugation and the amount of radioactivity in the pellet is determined by a gamma counter. If the candidate ligand inhibitor displaces CRF from CRF-BP, the pellets will contain less radioactivity in comparison to controls in which no candidate peptide is added. Maximum inhibition (i.e., 100%) of the binding of ^125 I-h/rCRF to the CRF-BP is defined by the amount of radioactivity left in the pellets after incubation with 10 μM of the CRF-BP peptide ligand h/rCRF (6-33). Thus, the binding potency of the candidate ligand inhibitor will be measured relative to the potency of the standard h/rCRF (6-33).
Thus, a ligand having a Ki of less than that of hCRF will bind more strongly to hCRF-BP than will hCRF itself, and a ligand having a higher value will have a relatively lower binding affinity.
The assay is performed in 600 μl polypropylene microfuge tubes or a 96-well plate. First, 50 μl of a 250 ng/ml of purified recombinant CRF-BP is added to 150 μl of PBS binding buffer (50 mM sodium phosphate, 0.15M NaCl, and 0.02% NP-40). Next, ^125 I-h/r CRF at a final concentration of 200 pM and 50 μl of a 10-100 μM concentration of the ligand inhibitor are added and incubated for 1 hour at room temperature. To the reaction, 50 μl of anti-CRF-BP antibody, 5144, diluted 1:1000 with assay buffer is added to each tube and allowed to bind for a further 1 hour at room temperature. The total volume in all tubes is adjusted to 300 μl with assay buffer. Bound complexes are precipitated by the addition of 200 μl of preprecipitated goat anti-rabbit (GAR) second antibody at 1:20 in 1% normal rabbit serum, 4% PEG, 50 mM sodium phosphate, 0.1% sodium azide, followed by incubation for 1 hour at room temperature. The antibody-bound ^125 I-CRF precipitate is then collected by centrifugation (3000×g) at 4° C. for 20 minutes in a Beckman GS-15R centrifuge. Using a Beckman Biomer 1000 robotic workstation, the tubes are aspirated and washed once with 600 μl of PBS plus 0.02% NP-40. Tubes containing the pellets are then transferred to 12×74 mm counting tubes and counted in a gamma counter.
Inhibitory binding affinity constant (Ki) values are determined using the method of Munson et al., Anal. Biochem. 107:220, 1980.
On the technique in general: In a radioligand displacement assay an active substance lowers the binding of a labelled ligand.

Ends that are not written are not given here. A value given as a limit tells only on which side of the number the result lay.

With `CN1[C@@H]2CC[C@H]1C[C@@H](OC(=O)C(CO)c1ccccc1)C2` (some centres unmarked) [atropine], the “CRF receptors after treatment” value with CRF receptors is recorded as “increase in CRF receptors”. As to `Nc1c2c(nc3ccccc13)CCCC2` [Tacrine], in data set [1], the “memory improvement in Alzheimer's patients” value was “only marginal memory improvement” and the side effects result is recorded as “elevating liver enzymes”.

Take `CNCCC(Oc1ccc(C(F)(F)F)cc1)c1ccccc1` (centres unmarked) [fluoxetine]: the side effects entry in data set [1] is given as “suicidality”.

Turning to “hCRF (9-33): The peptide hCRF (9-33) (DLTFHLLREVLEMARAEQLAQQAHS; Corticoliberin; UniProt P06850 162-186, looked up, fragment)”, in data set [2], the “CRF agonist activity relative to standard oCRF” value is on record as “less than 0.01%”. As for “hCRF (6-33): CRF-BP peptide ligand h/rCRF (6-33) (ISLDLTFHLLREVLEMARAEQLAQQAHS; Corticoliberin; UniProt P06850 159-186, looked up, fragment)”, in data set [2], the CRF antagonist activity result is “does not exhibit substantial CRF antagonist activity” and the “CRF agonist activity relative to standard oCRF” value is “less than 0.1%”.

Turning to `O=c1oc2ccc(Cl)cc2c(O)c1C=Nc1nc2ccccc2s1` [Compound 35], the “inhibition of formation of CRF/CRF-BP complexes in brain tissue” value in the data set with CRF/CRF-BP complexes is “inhibits formation of CRF/CRF-BP complexes in brains of controls and Alzheimer's disease patients”.

In the case of “urocortin: the human neuropeptide urocortin (DNPSLSIDLTFHLLRTLLELARTQSQRERAEQNRIIFDSV; ends and bridges not checked; UniProt P55089 83-122, looked up)”, the feeding behavior result in data set [3] (animals) is recorded as “significantly suppress feeding behavior in animals”. Also, the blood pressure entry in data set [3] (in vivo) is listed as “lowering blood pressure”. Further, in the data set with human CRF-BP, the “affinity for CRF-BP” value is given as “high affinity”. Usually Ki stands for a measure of affinity in units of concentration, obtained from inhibition or displacement. Turning to `O=c1c(C=Nc2nc3ccccc3[nH]2)c(O)n(CCCc2ccccc2)c(=S)n1CCCc1ccccc1` [Compound 97-1], the “latency time to entering the dark compartment” value in data set [4] is listed as “increase in medium latency time”. Moreover, at human recombinant CRF-BP, the Ki is less than 50 nM.

As for `CC(NC(C)(C)C)C(=O)c1cccc(Cl)c1` (centres unmarked) [bupropion], the side effects entry in data set [1] is reported as “convulsions”.
